Tested on: HL-60
Experiment: Induction of differentiation in human HL60 cells after 20 mins by NBT reduction assay relative to retinoic acid
Assay type: functional
Set-up: concentration or dose not given beside the values

Row | Compound | Activity [%]
1 | 4-[3-(2,5-Bis-trimethylgermanyl-phenyl)-3-oxo-propenyl]-benzoic acid (Ch55G) | 1000
2 | CC(C)(C)c1cc(C(=O)/C=C/c2ccc(C(=O)O)cc2)cc(C(C)(C)C)c1 | 640
3 | C[Si](C)(C)c1cc(C(=O)Nc2ccc(C(=O)O)cc2)cc([Si](C)(C)C)c1 [AMSILAROTENE] | 53
4 | C[Si](C)(C)c1cc(C(=O)/C=C/c2ccc(C(=O)O)cc2)cc([Si](C)(C)C)c1 | 860
5 | CC(C)(C)c1cc(C(=O)Nc2ccc(C(=O)O)cc2)cc(C(C)(C)C)c1 | 5.6
